The record followed here is paper PMC6400584, “Activation mechanism of ATP-sensitive K^+ channels explored with real-time nucleotide binding” (eLife, 2019).

This experiment has as its target SUR1-Y1353*/Kir6.2 (NBS2 of SUR1) (Homo sapiens, UniProt Q09428, Y1353X). Kind of experiment: FRET binding of TNP-nucleotides to ANAP-labeled KATP in unroofed membrane fragments. The following applies: 10 mM unlabeled nucleotide. The method, then:
Unroofed membranes were prepared using a modification of a protocol from the Heuser laboratory ([Heuser, 2000]; [Usukura et al., 2012]; [Zagotta et al., 2016]). Briefly, a coverslip containing adherent cells was removed from the cell culture medium and a small piece (0.5–1 cm) was broken off using jewelers forceps (#5) and washed in phosphate buffered saline (PBS, Thermo Fisher Scientific) diluted 1:3 in deionized water. Cells were exposed 3 × 10 s to a solution of 0.01% poly-L-lysine (Sigma) with intervening washes in diluted PBS to adhere them more firmly to the coverslips. The coverslip fragment was then placed in a 30 mm culture dish filled with 2–3 mL of 1/3X PBS and sonicated very briefly (~100 ms) using a probe sonicator (Vibra-cell; Newtown, CT), leaving behind adherent plasma membrane and sometimes additional cellular material. The unroofed fragments in our experiments were sometimes visible under bright-field illumination, a potential result of our modified ‘unroofing’ procedure. Morphologically, such cell fragments resemble the ‘partially unroofed’ cells identified by Usukura et al. ([Usukura et al., 2012]) Cells cultured on poly-D-lysine coated FluoroDishes were unroofed in diluted PBS with no additional poly-L-lysine treatment. This procedure yielded a higher percentage of completely unroofed plasma membranes (i.e. nearly invisible with brightfield illumination).
Unroofed membrane fragments were imaged directly on FluoroDishes (FD35-PDL-100, World Precision Instruments) or on broken coverslips placed in a FluoroDish (FD3510, World Precision instruments) using a Nikon TE2000-U microscope equipped with a 40x (S Fluor, 1.3 NA; Nikon, Kingston Upon Thames, UK) or 100x (Apo TIRF, 1.49 NA, Nikon) oil-immersion objective and low-fluorescence immersion oil (MOIL-30, Olympus; Southend-on-Sea, UK) or a 60x water immersion objective (Plan Apo VC, 1.20 NA, Nikon). ANAP was excited using a ThorLabs LED source (LED4D067) at 385 nm connected to the microscope using a liquid light guide in series with a 390/18 nm band-pass filter (MF390-18, ThorLabs; Newton, NJ) and MD416 dichroic (ThorLabs). For imaging, emitted light was filtered through a 479/40 nm band-pass filter (MF479-40, ThorLabs). GFP-tagged constructs were imaged using a similar setup with excitation at 490 nm, a 480/40 band-pass excitation filter (Chroma; Bellows Falls, VT), a DM505 dichroic mirror (Chroma), and 510 nm long-pass emission filter (Chroma). All images were acquired using a PIXIS 400B CCD camera (Princeton Instruments; Trenton, NJ). For spectroscopy, ANAP was excited as above, but emitted light was passed through a 400 nm long-pass filter (FEL0400, ThorLabs) and directed through the slit of an Isoplane 160 spectrometer (300 g/mm grating; Princeton Instruments) in series with the camera. The acquired images retained spatial information in the y-dimension, with the x-dimension replaced by wavelength (Figure 1—figure supplement 1a). Exposure times were typically 100 ms for brightfield images, 1–10 s for steady-state spectra and 1–5 s for time-course experiments.
To prevent accumulation of fluorescent nucleotides in the bath, FluoroDishes were perfused with either (in mM) 140 KCl, 20 NaCl, 10 MgCl2, 10 HEPES pH 7.2 with NaOH or 140 KCl, 20 NaCl, 1 EDTA, 10 HEPES pH 7.2 with NaOH using a peristaltic pump (Ismatec; Wertheim, Germany). Unroofed membranes were directly perfused with nucleotides using an 8-channel µFlow perfusion system (ALA Scientific Instruments; Farmingdale, NY). Solution change with the µFlow was rapid (τ = 0.73 s±0.02 s, n=5) as measured from single exponential fits to wash-out of 50 µM tetramethylrhodamine-5-maleimide (TMRM) after switching to a solution with no TMRM. TMRM was excited with a 565 nm LED with a D540/25X band-pass filter (Chroma) and DM565 dichroic mirror (Chroma). Emitted light was collected through a D605/55M band-pass filter (Chroma). […]

Turning to `Nc1ncnc2c1ncn2[C@@H]1O[C@H](COP(=O)([O-])OP(=O)([O-])O)[C@@H](O)[C@H]1O.[Mg+2]` [MgADP], the “ANAP fluorescence intensity relative to the original peak” value turned out to be 101 ± 2%.
